According to PubChem BioAssay AID1963963 (Molecular Pharmacology Branch, DTP, NCI, 2024):
pIC50: −log10 of the molar value.

Test system: 958667-338-R-J2-PDC tumor spheroids viability
Test: Anticancer human tumor 958667-338-R-J2-PDC patient-derived colon adenocarcinoma cell line growth inhibition [PI3K]
Details: spheroids with HUVEC and MSC; for pIC50: curve of first compound; for viability, T/C: stronger effect = lower value
Excerpt: Combinatorial screen of targeted agents with the PI3K inhibitors inavolisib, alpelisib, duvelisib, and copanlisib in multi-cell type tumor spheroids
A high-throughput screen of multi-cell type tumor spheroids was designed to identify active combinations of targeted small molecules and PI3K pathway inhibitors. Complex spheroids include a stromal component modeled by human endothelial cells (HUVEC) and fibroblasts modeled by human mesenchymal stem cells (MSCs). The concentration ranges selected for each drug and investigational agent were based upon clinically achievable concentrations if the clinical Cmax of the agent was known.
Compounds. The drugs and investigational agents: inavolisib (NSC800729), alpelisib (NSC765974), duvelisib (NSC772469), copanlisib (NSC816437), ipatasertib (NSC767898), afuresertib (NSC778305), talazoparib (NSC767125), sapanisertib (NSC764658), selumetinib (NSC741078), tovorafenib (DAY101, NSC766906), vemurafenib (NSC761431), ravoxertinib (NSC781343), sotorasib (NSC818433), MRTX1133 (NSC 836407), abemaciclib (NSC 768073), palbociclib (NSC758247), venetoclax (NSC 766270), SY5609 (NSC837396), enzalutamide (NSC755605), and darolutamide (NSC825331), were obtained from the National Cancer Institute (NCI) Developmental Therapeutics Program Chemical Repository. The FDA-approved anticancer drug set is available from the NCI Developmental Therapeutics Program. […] The stock solutions were prepared in dimethyl sulfoxide (DMSO, Sigma-Aldrich, St. Louis, MO, cat. D2650) at 800-fold the tested concentration and stored at -70 degrees C prior to their use. All drugs and investigational agents were tested over a range starting from a high concentration at or near the clinical Cmax and decreasing in half-log increments. If the clinical Cmax for an agent had not been determined, the highest concentration tested was 10 microM.
Cell Culture. All cells were maintained in an incubator at 37 degrees C and 5% CO2 with 95% humidity. The PDC lines were cultured according to standard operating procedures established by the NCI PDMR (https://pdmr.cancer.gov/sops/default.htm). All PDCs were thawed and cultured in Matrigel-coated flasks prepared with a working solution of 1X Ham's F-12 nutrient mix, without supplementation (Invitrogen, Waltham, MA, cat. 11765054), 100 U/mL penicillin-streptomycin (Invitrogen, cat. 15140122), and 2.5% Matrigel (Corning Inc., Corning, NY, cat. 354248) for the first three passages. The 354836-022-R-J1-PDC, 475296-252-R-J1-PDC, and 997726-040-R-J2-PDC lines were cultured in 6A media, which includes advanced DMEM/F-12 (Thermo Fisher Scientific, cat. 12634028), 10 mM HEPES (Thermo Fisher Scientific, cat. 15630080), 1X GlutaMAX supplement (Thermo Fisher Scientific, cat. 35050061), 0.1 mg/mL primocin (InvivoGen, San Diego, CA, cat. ant-pm-2), 10% defined fetal bovine serum, heat inactivated (HyClone Laboratories Inc., Logan, UT, cat. SH30070.03HI), 50% L-WRN conditioned media (ATCC, cat. CRL-3276), 1.25 mM N-Acetyl-L-cysteine (Sigma-Aldrich, cat. A9165), 10 mM nicotinamide (Sigma-Aldrich, cat. N0636), 1X B-27 supplement (Thermo Fisher Scientific, cat. 17504044), 1X N-2 supplement (Thermo Fisher Scientific, cat. 17502048), and 10 microM Y-27632 dihydrochloride (Tocris Bioscience, Bristol, United Kingdom, cat. 1254). The 624824-186-R-J2-PDC line was cultured in 6C/Colon 1B media, which includes all 6A media components plus 50 ng/mL human EGF recombinant protein (Thermo Fisher Scientific, cat. PHG0311). […]

[1] = second compound 0.00316 µM, first compound 0.0316 µM
[2] = second compound 0.00316 µM, first compound 0.1 µM
[3] = second compound 0.01 µM, first compound 0.0316 µM
[4] = second compound 0.01 µM, first compound 0.1 µM
[5] = second compound 0.0316 µM, first compound 0.0316 µM
[6] = second compound 0.0316 µM, first compound 0.1 µM
[7] = second compound 0.1 µM, first compound 0.0316 µM
[8] = second compound 0.1 µM, first compound 0.1 µM
[9] = second compound 0.316 µM, first compound 0.0316 µM
[10] = second compound 0.316 µM, first compound 0.1 µM
[11] = second compound 1 µM, first compound 0.0316 µM
[12] = second compound 1 µM, first compound 0.1 µM
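Also: spheroids exposed to compounds for seven days before readout.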

In the case of `CC(C)n1nc(-c2ccc3oc(N)nc3c2)c2c(N)ncnc21` + CC(Nc1ccc2c(c1)OCCn1cc(N3C(=O)OCC3C(F)F)nc1-2)C(N)=O, the pIC50 (second compound 0.00316 µM) was 7.19, the pIC50 (second compound 0.01 µM) was 7.19 and the pIC50 (second compound 0.0316 µM) was 7.36. It also gave a pIC50 (second compound 0.1 µM) of 7.28, a pIC50 (second compound 0.316 µM) of 7.54 and a pIC50 (second compound 1 µM) of 8.57. The viability, T/C (second compound 0.00316 µM, first compound 0.000316 µM) was 103%, the viability, T/C (second compound 0.00316 µM, first compound 0.001 µM) was 120% and the viability, T/C (second compound 0.00316 µM, first compound 0.00316 µM) was 92.5%. For the same compound, the viability, T/C (second compound 0.00316 µM, first compound 0.01 µM) was 91.7%, the viability, T/C [1] was 80.8% and the viability, T/C [2] was 33.3%. The viability, T/C (second compound 0.01 µM, first compound 0.000316 µM) was 109%, the viability, T/C (second compound 0.01 µM, first compound 0.001 µM) was 109% and the viability, T/C (second compound 0.01 µM, first compound 0.00316 µM) was 95.9%. It also gave a viability, T/C (second compound 0.01 µM, first compound 0.01 µM) of 94.7%, a viability, T/C [3] of 71% and a viability, T/C [4] of 37.1%. The viability, T/C (second compound 0.0316 µM, first compound 0.000316 µM) was 99.5%, the viability, T/C (second compound 0.0316 µM, first compound 0.001 µM) was 74.3% and the viability, T/C (second compound 0.0316 µM, first compound 0.00316 µM) was 81.5%. The viability, T/C (second compound 0.0316 µM, first compound 0.01 µM) was 65%, the viability, T/C [5] was 64.5% and the viability, T/C [6] was 32.9%. It also gave a viability, T/C (second compound 0.1 µM, first compound 0.000316 µM) of 79.3%, a viability, T/C (second compound 0.1 µM, first compound 0.001 µM) of 86.9% and a viability, T/C (second compound 0.1 µM, first compound 0.00316 µM) of 85.9%. The viability, T/C (second compound 0.1 µM, first compound 0.01 µM) was 75.3%, the viability, T/C [7] was 68% and the viability, T/C [8] was 28.7%. The viability, T/C (second compound 0.316 µM, first compound 0.000316 µM) was 58.2%, the viability, T/C (second compound 0.316 µM, first compound 0.001 µM) was 59.8% and the viability, T/C (second compound 0.316 µM, first compound 0.00316 µM) was 66.2%. The viability, T/C (second compound 0.316 µM, first compound 0.01 µM) was 65.1%, the viability, T/C [9] was 48.9% and the viability, T/C [10] was 21.8%. For the same compound, the viability, T/C (second compound 1 µM, first compound 0.000316 µM) was 65.7%, the viability, T/C (second compound 1 µM, first compound 0.001 µM) was 53.8% and the viability, T/C (second compound 1 µM, first compound 0.00316 µM) was 45.6%. The viability, T/C (second compound 1 µM, first compound 0.01 µM) was 44.3%, the viability, T/C [11] was 35.4% and the viability, T/C [12] was 23.5%.

With `CCCS(=O)(=O)Nc1ccc(F)c(C(=O)c2c[nH]c3ncc(-c4ccc(Cl)cc4)cc23)c1F` + CC(Nc1ccc2c(c1)OCCn1cc(N3C(=O)OCC3C(F)F)nc1-2)C(N)=O the pIC50 (second compound 0.00316 µM) was 5.21, the pIC50 (second compound 0.01 µM) was 5.22 and the pIC50 (second compound 0.0316 µM) was 5.30. The pIC50 (second compound 0.1 µM) was 5.32, the pIC50 (second compound 0.316 µM) was 5.32 and the pIC50 (second compound 1 µM) was 5.39. It also gave a viability, T/C [1] of 99%, a viability, T/C [2] of 105% and a viability, T/C (second compound 0.00316 µM, first compound 0.316 µM) of 106%. For the same compound, the viability, T/C (second compound 0.00316 µM, first compound 1 µM) was 106%, the viability, T/C (second compound 0.00316 µM, first compound 3.16 µM) was 112% and the viability, T/C (second compound 0.00316 µM, first compound 10 µM) was 8.08%. It also gave a viability, T/C [3] of 105%, a viability, T/C [4] of 111% and a viability, T/C (second compound 0.01 µM, first compound 0.316 µM) of 83.7%. For the same compound, the viability, T/C (second compound 0.01 µM, first compound 1 µM) was 99.9%, the viability, T/C (second compound 0.01 µM, first compound 3.16 µM) was 130% and the viability, T/C (second compound 0.01 µM, first compound 10 µM) was 5.91%. It also gave a viability, T/C [5] of 104%, a viability, T/C [6] of 109% and a viability, T/C (second compound 0.0316 µM, first compound 0.316 µM) of 104%. For the same compound, the viability, T/C (second compound 0.0316 µM, first compound 1 µM) was 106%, the viability, T/C (second compound 0.0316 µM, first compound 3.16 µM) was 76.7% and the viability, T/C (second compound 0.0316 µM, first compound 10 µM) was 9.56%. For the same compound, the viability, T/C [7] was 78.3%, the viability, T/C [8] was 74.9% and the viability, T/C (second compound 0.1 µM, first compound 0.316 µM) was 72.3%. For the same compound, the viability, T/C (second compound 0.1 µM, first compound 1 µM) was 67.5%, the viability, T/C (second compound 0.1 µM, first compound 3.16 µM) was 81.1% and the viability, T/C (second compound 0.1 µM, first compound 10 µM) was 5.14%. The viability, T/C [9] was 72.5%, the viability, T/C [10] was 65.5% and the viability, T/C (second compound 0.316 µM, first compound 0.316 µM) was 61.5%. For the same compound, the viability, T/C (second compound 0.316 µM, first compound 1 µM) was 79.1%, the viability, T/C (second compound 0.316 µM, first compound 3.16 µM) was 79.7% and the viability, T/C (second compound 0.316 µM, first compound 10 µM) was 12.3%. It also gave a viability, T/C [11] of 57.8%, a viability, T/C [12] of 61% and a viability, T/C (second compound 1 µM, first compound 0.316 µM) of 58%. For the same compound, the viability, T/C (second compound 1 µM, first compound 1 µM) was 68.9%, the viability, T/C (second compound 1 µM, first compound 3.16 µM) was 60.5% and the viability, T/C (second compound 1 µM, first compound 10 µM) was 10.8%.
